From ChEMBL document CHEMBL1201862, “PubChem BioAssay data set” (2004) come the findings set out here.

For experiment [1], the target named is Peroxisome proliferator-activated receptor gamma/Nuclear receptor corepressor 2 (Homo sapiens, UniProt P37231+Q9Y618). Nature of the experiment: Counterscreen for NR2E3 inverse agonists: TR-FRET-based biochemical high throughput dose response assay to identify inverse agonists of the interaction between peroxisome proliferator-activated receptor gamma (PPARg) and nuclear receptor co-repressor 2 (NCOR2). It counts as functional. On the technique in general: A counterscreen serves to expose hits that act by an unwanted route or on another target.

Experiment [2] concerns the target Photoreceptor-specific nuclear receptor (Homo sapiens, UniProt Q9Y5X4). Nature of the experiment: ligands suppressing NR2E3 nuclear receptor activity – biochemical, TR-FRET, dose response (AID 463256). It counts as functional.
In experiment [3] the target is Voltage-gated inwardly rectifying potassium channel KCNH2 (Homo sapiens, UniProt Q12809). Nature of the experiment: concentration-dependent hERG rescue from blockers – cell-based, thallium flux, dose response (AID 2121). It counts as ADME. Background: Block of hERG is tested as a sign of cardiac risk.
In another experiment the target is Genome polyprotein (dengue virus type 2, UniProt P29990). Nature of the experiment: flavivirus cap methylation enzyme inhibition – biochemical, confirmation dose response, primary screen (AID 588689). It is filed as functional.
Experiment [4] concerns the target Potassium voltage-gated channel subfamily KQT member 2 (Rattus norvegicus, UniProt O88943, W236L). Nature of the experiment: potentiation of rat KCNQ2 current – cell-based, automated electrophysiology, mechanism study for KCNQ2 potentiator project, dose response (AID 2603). It counts as functional.
The next experiment relates to Vero. Nature of the experiment: viability of Vero cells under compound – cytotoxicity control for flavivirus capping enzyme inhibitors (AID 588742). It is filed as functional. Particulars: Chlorocebus sabaeus.
Experiment [5] deals with T1, High affinity choline transporter 1 (Homo sapiens, UniProt Q9GZV3).
T1 sequence (Q9GZV3 whole entry): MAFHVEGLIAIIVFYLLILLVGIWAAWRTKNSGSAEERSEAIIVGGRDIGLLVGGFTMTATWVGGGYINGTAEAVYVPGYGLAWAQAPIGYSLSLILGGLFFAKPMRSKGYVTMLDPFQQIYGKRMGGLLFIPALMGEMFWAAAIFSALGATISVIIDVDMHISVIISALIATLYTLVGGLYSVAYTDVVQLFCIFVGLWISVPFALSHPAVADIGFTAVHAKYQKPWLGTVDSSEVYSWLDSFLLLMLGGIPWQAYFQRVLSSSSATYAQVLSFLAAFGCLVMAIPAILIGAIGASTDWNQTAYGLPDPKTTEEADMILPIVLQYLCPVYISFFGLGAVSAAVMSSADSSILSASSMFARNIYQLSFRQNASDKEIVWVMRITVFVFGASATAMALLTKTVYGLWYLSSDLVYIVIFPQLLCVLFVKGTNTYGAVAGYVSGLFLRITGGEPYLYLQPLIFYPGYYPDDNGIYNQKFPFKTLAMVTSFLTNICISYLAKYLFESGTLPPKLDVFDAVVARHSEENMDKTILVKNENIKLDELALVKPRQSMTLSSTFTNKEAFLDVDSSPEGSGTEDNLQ
Nature of the experiment: human choline transporter blockers, potency – cell-based, 10-point CRC, membrane potential dye, dose response (AID 588401).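 Also: membrane potential dye fluorescence of choline-evoked depolarization via CHT.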 It is filed as functional.

The nature of experiment [6]: non-specific 3'UTR reporter inhibition in Clone20-Shn3RL – cell-based, Renilla luciferase, cherry-picked, counter-screen for Shn3 inhibitor project, dose response (AID 624133). It is filed as functional.
The target in experiment [7] is Hepatocyte nuclear factor 4-alpha (Homo sapiens, UniProt P41235). It is filed as functional, cell-based.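 Also: biochemical luminescence-based dose-response counterscreen measuring inhibition of HNF4 dimerization, run alongside a screen for blockers of ABHD5–perilipin-5 interaction; split luciferase complementation of HNF4 fusion proteins in cell lysate measuring dimerization.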
Experiment [8] addresses T1, High affinity choline transporter 1. Nature of the experiment: human choline transporter blockers, potency – cell-based, 5-point CRC, membrane potential dye, dose response (AID 504840). It counts as functional.
Experiment [9] in a line: Luminescence Cell-Based Dose Response HTS to Identify Activators of Luciferase Translation or Activity in H4 […] Cells. [Related pubchem assays: 1829 (Project Summary), 1814 (Primary HTS)]. It counts as functional.
A short description of experiment [10]: Luminescence Cell-Based Dose Confirmation HTS to Identify Activators of 5'UTR Stem-Loop Driven Alpha-Synuclein mRNA Translation in H4 Neuroglioblastoma Cells. [Related pubchem assays: 1829 (Project Summary), 1814 (Primary HTS)]. It counts as functional.
Another experiment concerns H4. Nature of the experiment: Luminescence Cell-Based Dose Response HTS to Identify Activators of 5'UTR Stem-Loop Driven Prion Protein mRNA Translation in H4 Neuroglioblastoma Cells. [Related pubchem assays: 1829 (Project Summary), 1814 (Primary HTS)]. It counts as functional. As to conditions: Homo sapiens.
The next experiment has as its target T2, Protein RecA (Mycobacterium tuberculosis, UniProt P9WHJ3).
T2 sequence (P9WHJ3 whole entry): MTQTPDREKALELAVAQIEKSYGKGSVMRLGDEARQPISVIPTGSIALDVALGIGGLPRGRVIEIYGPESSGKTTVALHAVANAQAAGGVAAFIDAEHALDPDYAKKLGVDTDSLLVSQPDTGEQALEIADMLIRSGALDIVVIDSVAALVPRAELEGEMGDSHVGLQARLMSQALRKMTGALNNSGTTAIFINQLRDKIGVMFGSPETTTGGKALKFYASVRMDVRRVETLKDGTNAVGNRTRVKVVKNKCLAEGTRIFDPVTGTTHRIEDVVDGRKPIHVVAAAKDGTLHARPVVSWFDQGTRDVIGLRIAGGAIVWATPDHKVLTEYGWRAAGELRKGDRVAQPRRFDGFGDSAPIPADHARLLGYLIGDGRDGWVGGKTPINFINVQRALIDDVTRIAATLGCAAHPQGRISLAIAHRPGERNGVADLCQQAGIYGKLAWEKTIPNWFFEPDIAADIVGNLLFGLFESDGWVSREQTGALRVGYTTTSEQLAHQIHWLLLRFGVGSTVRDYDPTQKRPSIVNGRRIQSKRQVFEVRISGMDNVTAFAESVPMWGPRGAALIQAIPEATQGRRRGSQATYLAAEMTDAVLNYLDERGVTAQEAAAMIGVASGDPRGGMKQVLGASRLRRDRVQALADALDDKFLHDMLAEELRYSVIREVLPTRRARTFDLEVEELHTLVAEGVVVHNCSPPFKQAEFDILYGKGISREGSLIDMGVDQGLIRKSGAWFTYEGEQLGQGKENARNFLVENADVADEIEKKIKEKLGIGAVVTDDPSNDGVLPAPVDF
Nature of the experiment: Fluorescence Cell-Free Homogeneous Dose Retest to Identify Inhibitors of RecA-Intein Splicing Activity. [Related pubchem assays (depositor defined):AID2097, AID2223, AID489010, AID492950]. It counts as functional.

Experiment [11] has as its target T3, Replicative DNA helicase DnaB (Mycobacterium tuberculosis, UniProt P9WMR3).
T3 sequence (P9WMR3 whole entry): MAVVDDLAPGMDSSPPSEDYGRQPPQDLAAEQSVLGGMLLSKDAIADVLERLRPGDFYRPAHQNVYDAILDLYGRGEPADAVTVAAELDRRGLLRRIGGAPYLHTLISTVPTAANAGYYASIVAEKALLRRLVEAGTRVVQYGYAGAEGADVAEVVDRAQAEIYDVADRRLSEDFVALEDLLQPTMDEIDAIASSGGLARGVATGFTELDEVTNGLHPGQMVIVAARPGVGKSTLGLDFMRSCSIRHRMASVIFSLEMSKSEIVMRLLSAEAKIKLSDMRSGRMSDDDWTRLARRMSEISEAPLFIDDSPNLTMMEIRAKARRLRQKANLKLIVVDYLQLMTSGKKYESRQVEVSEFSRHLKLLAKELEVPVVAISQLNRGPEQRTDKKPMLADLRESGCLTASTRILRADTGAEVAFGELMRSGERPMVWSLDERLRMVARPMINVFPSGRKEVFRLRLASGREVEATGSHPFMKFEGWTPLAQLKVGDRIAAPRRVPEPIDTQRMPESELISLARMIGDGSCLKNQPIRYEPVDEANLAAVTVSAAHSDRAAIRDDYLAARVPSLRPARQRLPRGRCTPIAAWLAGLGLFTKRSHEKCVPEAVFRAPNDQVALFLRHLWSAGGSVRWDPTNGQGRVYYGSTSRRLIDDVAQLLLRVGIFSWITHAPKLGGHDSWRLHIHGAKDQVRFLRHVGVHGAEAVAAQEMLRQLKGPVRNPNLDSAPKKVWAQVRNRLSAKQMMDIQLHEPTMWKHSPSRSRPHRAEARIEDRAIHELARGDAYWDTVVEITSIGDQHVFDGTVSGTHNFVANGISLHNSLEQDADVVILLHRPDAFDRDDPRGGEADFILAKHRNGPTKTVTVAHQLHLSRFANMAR
Nature of the experiment: DnaB intein splicing inhibitors, dose response, biochemical, cell-free fluorescence (AID 449749). It counts as functional.

Experiment [12] is described as follows: reduction of Shn3 3'UTR-driven luciferase in osteoblasts – cell-based, Clone20 osteoblasts, firefly luciferase, cherry-picked, dose response (AID 624132).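 Also: firefly luciferase luminescence from reporter carrying the Shn3 3'UTR in osteoblasts.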 It counts as functional.
Experiment [13] in a line: Luminescence-based dose response cell-based high throughput screening assay for cytotoxic compounds using the IEC-6 intestinal epithelial cell line. [Related pubchem assays: 1858 (Summary AID.), 1825 (Counterscreen.), 1907 (Confirmation screen.)]. It is filed as functional.
The subject of experiment [14] is BJ. Nature of the experiment: BJ-TERT fibroblast viability loss – cell-based, RAS-independent, luminescence, dose response (AID 1933). It is filed as functional. Particulars: Homo sapiens.
Experiment [15] is described as follows: DRD fibroblast viability loss – cell-based, non-viral oncogenic, luminescence, dose response (AID 1934). It counts as functional. Particulars: Homo sapiens.
Experiment [16] concerns BJ. Nature of the experiment: BJ-TERT-LT-ST fibroblast viability loss – cell-based, RAS-independent, luminescence, dose response (AID 1935).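 Also: BJ fibroblasts immortalized with TERT plus LT and ST oncogenes.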 It is filed as functional. As to conditions: Homo sapiens.
Experiment [17] deals with BJ. Nature of the experiment: cells. Particulars: Homo sapiens. It is filed as functional, cell-based.
The target of experiment [18] is Protein-tyrosine kinase 2-beta (Homo sapiens, UniProt Q14289).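 Also: potency of inhibitors of PYK2 kinase phosphorylation of poly-GT substrate.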
A further experiment concerns the target T4, Estrogen receptor (Homo sapiens, UniProt P03372).
T4 sequence (P03372 whole entry): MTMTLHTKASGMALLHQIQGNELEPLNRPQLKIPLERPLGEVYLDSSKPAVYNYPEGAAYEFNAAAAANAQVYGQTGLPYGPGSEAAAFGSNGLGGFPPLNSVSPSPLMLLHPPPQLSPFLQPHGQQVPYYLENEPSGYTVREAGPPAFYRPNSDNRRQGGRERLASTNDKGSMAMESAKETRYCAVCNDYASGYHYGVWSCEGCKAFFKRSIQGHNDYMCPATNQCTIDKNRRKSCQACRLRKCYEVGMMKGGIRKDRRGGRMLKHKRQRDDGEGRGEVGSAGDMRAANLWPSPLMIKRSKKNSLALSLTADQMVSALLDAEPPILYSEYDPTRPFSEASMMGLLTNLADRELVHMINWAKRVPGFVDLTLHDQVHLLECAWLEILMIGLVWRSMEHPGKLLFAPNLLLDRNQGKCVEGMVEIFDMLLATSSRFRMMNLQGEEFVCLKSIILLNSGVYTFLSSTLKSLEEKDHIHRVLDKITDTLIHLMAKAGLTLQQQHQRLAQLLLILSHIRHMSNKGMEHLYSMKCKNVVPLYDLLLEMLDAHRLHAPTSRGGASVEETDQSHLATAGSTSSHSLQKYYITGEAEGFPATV
Nature of the experiment: ERα coactivator recruitment enhancers – biochemical, TR-FRET, ERα LBD, dose response (AID 737). (Time-resolved FRET reads energy transfer from a long-lived donor to a nearby acceptor.)

For a further experiment, the target named is Bcl-2-like protein 1 (Homo sapiens, UniProt Q07817). Nature of the experiment: blockers of BCLXL peptide binding – biochemical, fluorescence polarization, 1536-well, selectivity assay for MCL1 inhibitor project, dose response (AID 2218).
Experiment [19] addresses Induced myeloid leukemia cell differentiation protein Mcl-1 (Homo sapiens, UniProt Q07820). Nature of the experiment: blockers of MCL1 binding to BIM peptide – biochemical, fluorescence polarization, BIM-BH3 peptide, 1536-well, dose response (AID 2217).

The structures appear in SMILES notation. Activity calls are given as the source filed them.

Photoreceptor-specific nuclear receptor, sequence (Q9Y5X4 whole entry): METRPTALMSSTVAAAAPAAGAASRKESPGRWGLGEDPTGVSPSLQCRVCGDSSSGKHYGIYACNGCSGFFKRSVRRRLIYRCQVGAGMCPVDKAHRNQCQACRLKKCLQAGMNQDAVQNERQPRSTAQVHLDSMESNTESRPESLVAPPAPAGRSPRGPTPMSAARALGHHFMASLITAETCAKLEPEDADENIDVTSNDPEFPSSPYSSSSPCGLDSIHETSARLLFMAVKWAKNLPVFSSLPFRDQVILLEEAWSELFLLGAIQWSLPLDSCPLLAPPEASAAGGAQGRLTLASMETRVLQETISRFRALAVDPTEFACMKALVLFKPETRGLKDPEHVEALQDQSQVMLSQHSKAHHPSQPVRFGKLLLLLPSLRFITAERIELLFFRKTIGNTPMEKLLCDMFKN
Voltage-gated inwardly rectifying potassium channel KCNH2, sequence (Q12809 whole entry): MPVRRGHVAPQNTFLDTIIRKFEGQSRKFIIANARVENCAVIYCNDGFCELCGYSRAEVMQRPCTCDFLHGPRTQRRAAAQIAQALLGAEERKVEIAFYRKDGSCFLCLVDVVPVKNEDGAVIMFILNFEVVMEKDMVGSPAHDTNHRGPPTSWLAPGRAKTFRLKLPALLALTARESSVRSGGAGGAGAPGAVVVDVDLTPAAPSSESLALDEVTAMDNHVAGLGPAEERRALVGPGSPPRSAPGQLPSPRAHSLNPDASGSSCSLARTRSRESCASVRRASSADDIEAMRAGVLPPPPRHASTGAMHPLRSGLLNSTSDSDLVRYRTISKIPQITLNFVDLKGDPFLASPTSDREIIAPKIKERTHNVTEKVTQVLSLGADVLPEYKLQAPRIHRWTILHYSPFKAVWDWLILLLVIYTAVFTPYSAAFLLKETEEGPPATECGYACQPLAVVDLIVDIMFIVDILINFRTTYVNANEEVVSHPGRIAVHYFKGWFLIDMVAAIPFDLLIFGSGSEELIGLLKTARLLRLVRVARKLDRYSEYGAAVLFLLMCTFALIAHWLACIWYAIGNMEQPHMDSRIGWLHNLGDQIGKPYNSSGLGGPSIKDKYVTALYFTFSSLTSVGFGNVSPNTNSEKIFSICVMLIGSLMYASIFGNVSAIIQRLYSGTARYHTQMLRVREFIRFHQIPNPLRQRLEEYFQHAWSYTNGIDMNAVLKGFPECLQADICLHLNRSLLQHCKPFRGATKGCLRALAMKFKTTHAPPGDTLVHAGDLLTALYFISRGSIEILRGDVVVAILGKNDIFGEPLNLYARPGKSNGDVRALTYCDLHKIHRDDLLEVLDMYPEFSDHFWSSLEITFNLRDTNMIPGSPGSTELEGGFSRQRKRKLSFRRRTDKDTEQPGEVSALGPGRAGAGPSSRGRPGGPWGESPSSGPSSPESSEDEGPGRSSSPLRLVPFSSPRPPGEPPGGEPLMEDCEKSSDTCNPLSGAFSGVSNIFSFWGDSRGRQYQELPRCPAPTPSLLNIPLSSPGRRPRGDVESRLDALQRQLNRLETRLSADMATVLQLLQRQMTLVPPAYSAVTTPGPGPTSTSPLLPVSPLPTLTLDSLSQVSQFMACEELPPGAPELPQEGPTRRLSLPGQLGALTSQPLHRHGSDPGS
Hepatocyte nuclear factor 4-alpha, sequence (P41235 whole entry, the tested form may be a part): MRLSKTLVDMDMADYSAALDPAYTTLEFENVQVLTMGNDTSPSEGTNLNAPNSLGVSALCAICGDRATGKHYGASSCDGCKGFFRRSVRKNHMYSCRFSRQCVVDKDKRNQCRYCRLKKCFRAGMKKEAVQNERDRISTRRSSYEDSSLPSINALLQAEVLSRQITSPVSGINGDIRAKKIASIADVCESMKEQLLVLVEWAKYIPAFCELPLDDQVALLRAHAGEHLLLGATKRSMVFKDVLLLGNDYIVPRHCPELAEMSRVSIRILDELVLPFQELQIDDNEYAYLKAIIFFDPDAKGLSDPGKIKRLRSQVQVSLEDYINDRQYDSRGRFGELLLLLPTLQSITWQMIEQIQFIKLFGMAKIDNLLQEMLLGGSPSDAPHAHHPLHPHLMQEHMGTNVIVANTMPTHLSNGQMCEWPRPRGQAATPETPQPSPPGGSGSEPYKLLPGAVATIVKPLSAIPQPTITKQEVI
Genome polyprotein, sequence (P29990 2492-3391 limits assumed): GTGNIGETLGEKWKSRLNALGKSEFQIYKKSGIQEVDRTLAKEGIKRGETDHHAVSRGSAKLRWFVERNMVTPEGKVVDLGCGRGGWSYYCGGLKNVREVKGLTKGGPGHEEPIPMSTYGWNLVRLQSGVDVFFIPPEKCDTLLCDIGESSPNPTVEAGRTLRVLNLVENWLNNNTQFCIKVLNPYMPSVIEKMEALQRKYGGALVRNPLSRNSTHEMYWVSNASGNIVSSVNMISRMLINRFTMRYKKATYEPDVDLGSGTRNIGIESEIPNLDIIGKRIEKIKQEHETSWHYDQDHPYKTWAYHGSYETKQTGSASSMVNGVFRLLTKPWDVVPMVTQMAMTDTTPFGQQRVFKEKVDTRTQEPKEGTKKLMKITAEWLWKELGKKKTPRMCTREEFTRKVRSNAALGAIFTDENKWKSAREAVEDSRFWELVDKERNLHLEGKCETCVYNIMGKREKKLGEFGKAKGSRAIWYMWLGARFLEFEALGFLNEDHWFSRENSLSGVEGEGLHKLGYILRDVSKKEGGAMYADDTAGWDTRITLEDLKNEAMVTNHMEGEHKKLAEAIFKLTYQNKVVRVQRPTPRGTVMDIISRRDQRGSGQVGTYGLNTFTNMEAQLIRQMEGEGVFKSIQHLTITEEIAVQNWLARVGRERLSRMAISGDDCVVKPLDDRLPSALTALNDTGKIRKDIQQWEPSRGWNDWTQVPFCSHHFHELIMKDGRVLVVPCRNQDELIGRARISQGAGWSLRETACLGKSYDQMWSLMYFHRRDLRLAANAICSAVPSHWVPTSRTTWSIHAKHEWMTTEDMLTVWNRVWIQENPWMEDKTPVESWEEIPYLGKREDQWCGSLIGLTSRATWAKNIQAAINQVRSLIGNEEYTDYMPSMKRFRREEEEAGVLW
Bcl-2-like protein 1, sequence (Q07817 whole entry): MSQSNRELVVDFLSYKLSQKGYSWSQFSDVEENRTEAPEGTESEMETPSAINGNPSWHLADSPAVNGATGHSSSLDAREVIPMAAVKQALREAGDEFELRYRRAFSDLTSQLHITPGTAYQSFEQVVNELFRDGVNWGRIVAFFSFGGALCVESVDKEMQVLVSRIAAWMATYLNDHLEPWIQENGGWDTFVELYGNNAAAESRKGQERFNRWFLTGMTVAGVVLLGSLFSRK
Protein-tyrosine kinase 2-beta, sequence (Q14289 whole entry): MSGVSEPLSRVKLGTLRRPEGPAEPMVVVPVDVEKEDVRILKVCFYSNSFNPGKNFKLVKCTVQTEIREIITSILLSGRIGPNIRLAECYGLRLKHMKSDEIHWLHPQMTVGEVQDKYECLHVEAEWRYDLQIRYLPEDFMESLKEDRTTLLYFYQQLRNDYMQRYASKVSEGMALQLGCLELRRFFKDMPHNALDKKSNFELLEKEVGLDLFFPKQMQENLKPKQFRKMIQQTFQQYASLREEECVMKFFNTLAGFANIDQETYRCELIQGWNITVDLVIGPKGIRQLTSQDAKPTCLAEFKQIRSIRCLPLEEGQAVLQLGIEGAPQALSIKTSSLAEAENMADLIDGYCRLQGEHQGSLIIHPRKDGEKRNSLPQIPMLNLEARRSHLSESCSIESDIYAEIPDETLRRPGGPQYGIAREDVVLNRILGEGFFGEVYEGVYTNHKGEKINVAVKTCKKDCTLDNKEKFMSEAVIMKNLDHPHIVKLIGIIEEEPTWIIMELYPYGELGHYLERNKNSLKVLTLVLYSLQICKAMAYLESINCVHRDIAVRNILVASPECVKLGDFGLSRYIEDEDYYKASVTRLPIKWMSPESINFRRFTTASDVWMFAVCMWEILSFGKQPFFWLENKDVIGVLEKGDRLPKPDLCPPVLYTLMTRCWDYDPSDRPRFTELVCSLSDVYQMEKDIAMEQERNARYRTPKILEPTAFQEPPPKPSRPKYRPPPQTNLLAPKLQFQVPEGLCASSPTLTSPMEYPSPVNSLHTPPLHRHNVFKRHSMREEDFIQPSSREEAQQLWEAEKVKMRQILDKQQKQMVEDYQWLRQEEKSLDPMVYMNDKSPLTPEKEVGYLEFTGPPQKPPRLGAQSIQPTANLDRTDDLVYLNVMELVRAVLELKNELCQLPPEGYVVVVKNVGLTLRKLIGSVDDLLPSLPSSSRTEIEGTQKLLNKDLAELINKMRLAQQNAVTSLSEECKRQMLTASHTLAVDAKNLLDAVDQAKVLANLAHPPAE
Induced myeloid leukemia cell differentiation protein Mcl-1, sequence (Q07820 whole entry): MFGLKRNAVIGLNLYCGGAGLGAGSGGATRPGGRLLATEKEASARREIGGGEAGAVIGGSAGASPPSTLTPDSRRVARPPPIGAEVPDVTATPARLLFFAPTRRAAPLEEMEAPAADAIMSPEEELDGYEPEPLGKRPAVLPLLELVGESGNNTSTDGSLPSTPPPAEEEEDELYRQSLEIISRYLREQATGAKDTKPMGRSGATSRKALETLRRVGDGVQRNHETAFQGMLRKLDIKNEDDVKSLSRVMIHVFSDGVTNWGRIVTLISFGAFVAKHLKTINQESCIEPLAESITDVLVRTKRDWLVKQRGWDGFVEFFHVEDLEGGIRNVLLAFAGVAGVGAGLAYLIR

`Cc1sc2ncnc(SCC(=O)NC(=O)c3cccn3C)c2c1C`: the IC50 (commonly the concentration needed to halve the response being measured) in experiment [1] is 6.6 µM (active); in experiment [2] it was 3.97 µM (active). Further, the EC50 (usually the midpoint of the concentration-response curve) in experiment [3] is 7.84 µM (active).

With `CCc1nnc(NC(=O)c2nc(S(=O)(=O)Cc3cccc(C)c3)ncc2Cl)s1`, the IC50 at Genome polyprotein is > 100 µM (active); in [5], 2.82 µM (active); in [7], 5.05 µM (active); in experiment [8], 2.4 µM (active). Also, the EC50 in experiment [4] was 16.8 µM (active); in experiment [9], > 120 µM (not active); in experiment [10], > 120 µM (not active); with H4, > 120 µM (not active); at Protein RecA it was 4.37 µM (active). In addition, the cytotoxic concentration (CC50) (usually the concentration at which the toxic effect on the cells reaches its halfway point) in the experiment on Vero was 26.6 µM (active). Moreover, the AC50 (commonly the midpoint of the concentration-response curve, whichever way the signal moves) in experiment [6] was 6.99 µM (active); in experiment [11], 5.05 µM (active); in experiment [12], 2.51 µM (active).

For the compound `CCCNc1nc(-c2ccccc2)c(C(=O)OCC)cc1C#N`, the IC50 in experiment [13] is 4.2 µM (active). Besides, the EC50 with BJ [14] is 8.98 µM (inconclusive); in experiment [15] it was 16.3 µM (active); with BJ [16], 4.54 µM (inconclusive); in the experiment on BJ [17] it was 26 µM (active).

With `O=C(Oc1ccc(-c2cnc3ccccc3n2)cc1)c1ccc(Br)o1`, the IC50 in experiment [18] was > 69.5 µM (not active). At Estrogen receptor, the EC50 is 6.97 µM (active).

Regarding `O=C(O)C(C(=O)/C=C/c1ccco1)=C1SCCS1`, the IC50 on Bcl-2-like protein 1 is given as > 109 µM (not active); in experiment [19] it was 21.9 µM (not active).
